The text below walks through data of patent US20150111852A1, “1-Di(sec-butyl)-phosphinoyl-pentane (dapa-2-5) as a topical agent” (priority 2013, published 2015).

Data set [1] deals with mouth and throat. The data set can be described thus: Sensory activity of ODT-C on volunteers (double-blind, modified ASHRAE scale). The data set is classed as in vivo, human. The settings on record: for ODT-C test results (sensation and taste in words) / duration of cooling effect: 1.2 to 1.5 mg per ODT; for ODT-C test results (sensation and taste in words): 4 volunteers; for duration of cooling effect: ODT-C; for ASHRAE equivalent: peak heat abstraction sensation, modified ASHRAE scale neutral [0] to icy cold [-4]. The procedure: ODT-C. More experiments were conducted to find a smaller tablet, in the range of 40 to 60 mg, with a disintegration of <10 sec. These paraemters might achieve a better pharmacological effect. ODT-B was 100 mg in size and disintegrated in <20 sec. […] For example, to 1.5 g of DAPA-2-5 is added 1.5 g of absolute ethanol, followed by 2.0 g of Neusilin US2. The mixture is shaken or mixed in a Speedmixer at 500 rpm for 1 min. The sample is placed under a heat source and about 2 hr later, the sample size is re-weighed with the expectation that the ethanol has been evaporated and the sample now weights 3.5 g. This powder is free-flowing. • b. a sample of maltitol powder is prepared (Maltisorb® P200 from Roquette). • c. a sample of Prosolv® EasyTab is prepared (JRS Pharma, Rosenburg, Germany). • d. a blend of a. [2.80 g], b. [15.73 g] and c. [31.46 g] is prepared to make 1000 ODT tablets, each weighing 50 mg and containing 1.2 mg of DAPA-2-5. • e. the blend is first shaken by hand, then placed for 2 min in a SpeedMixer at 500 rpm. The blend is poured into the funnel of a New Single Punch Tablet Press Pill Making Machine Maker TDP-1-5 [available from Amazon.com] and the extruded tablets are collected.
ODT-C, described in Study 2, were tested for sensory properties on 4 volunteers, with at least 3 trials per compound and at 1.2 to 1.5 mg per ODT. The ODT was placed on the mid-line posterior dorsal surface of the tongue and sensory effects recorded for 30 min on a standardized form […]. The ODT were coded and administered on a double-blind basis. A modified ASHRAE scale of neutral, slightly cool [-1], cool [-2], cold [-3], and icy cold [-4] was used to rank the peak heat abstraction sensations in the mouth and throat. Other perceived effects, e.g. taste and duration, were also noted.

Data set [2] has as its system throat. The data set can be described thus: Cold water test after ODT-A (cold discomfort). The data set is classed as in vivo, human. Also noted: key: If the subject felt “normal coolness” in the throat, the value was “0”; if the water felt “excessively cold” on the throat, it was rated as “+”; if there was “aching cold/discomfort” on the throat, the ranking was “++”. The conditions noted are these: ODT-A on the tongue, ice water drunk 10 min later. As for the experimental part:
After application of ODT-A there were sensations associated with heat abstraction of various intensity and duration. Of particular note was the sensation of “icy or painful” cold was felt with some compounds, but the effect was variable. To isolate this sensation more precisely and reduce variability, ODT-A was placed on the tongue and 10 min later the subject was instructed to drink a mouthful of water previously equilibrated with ice chips. If the subject felt “normal coolness” in the throat, the value was “0”; if the water felt “excessively cold” on the throat, it was rated as “+”; and if there was “aching cold/discomfort” on the throat, the ranking was “++”. The term “cold discomfort” was applied compounds that produced “++”, and this phenomenon could now be reliably defined and identified with the cold water test.

For data set [3], the target named is T1, cloned hTRPM8 channel (encoded by the human TRPM8 gene, expressed in CHO cells) (Homo sapiens, UniProt Q7Z2W7).
T1 construct: host or cells: CHO cells, stably transfected
T1 sequence (Q7Z2W7 whole entry): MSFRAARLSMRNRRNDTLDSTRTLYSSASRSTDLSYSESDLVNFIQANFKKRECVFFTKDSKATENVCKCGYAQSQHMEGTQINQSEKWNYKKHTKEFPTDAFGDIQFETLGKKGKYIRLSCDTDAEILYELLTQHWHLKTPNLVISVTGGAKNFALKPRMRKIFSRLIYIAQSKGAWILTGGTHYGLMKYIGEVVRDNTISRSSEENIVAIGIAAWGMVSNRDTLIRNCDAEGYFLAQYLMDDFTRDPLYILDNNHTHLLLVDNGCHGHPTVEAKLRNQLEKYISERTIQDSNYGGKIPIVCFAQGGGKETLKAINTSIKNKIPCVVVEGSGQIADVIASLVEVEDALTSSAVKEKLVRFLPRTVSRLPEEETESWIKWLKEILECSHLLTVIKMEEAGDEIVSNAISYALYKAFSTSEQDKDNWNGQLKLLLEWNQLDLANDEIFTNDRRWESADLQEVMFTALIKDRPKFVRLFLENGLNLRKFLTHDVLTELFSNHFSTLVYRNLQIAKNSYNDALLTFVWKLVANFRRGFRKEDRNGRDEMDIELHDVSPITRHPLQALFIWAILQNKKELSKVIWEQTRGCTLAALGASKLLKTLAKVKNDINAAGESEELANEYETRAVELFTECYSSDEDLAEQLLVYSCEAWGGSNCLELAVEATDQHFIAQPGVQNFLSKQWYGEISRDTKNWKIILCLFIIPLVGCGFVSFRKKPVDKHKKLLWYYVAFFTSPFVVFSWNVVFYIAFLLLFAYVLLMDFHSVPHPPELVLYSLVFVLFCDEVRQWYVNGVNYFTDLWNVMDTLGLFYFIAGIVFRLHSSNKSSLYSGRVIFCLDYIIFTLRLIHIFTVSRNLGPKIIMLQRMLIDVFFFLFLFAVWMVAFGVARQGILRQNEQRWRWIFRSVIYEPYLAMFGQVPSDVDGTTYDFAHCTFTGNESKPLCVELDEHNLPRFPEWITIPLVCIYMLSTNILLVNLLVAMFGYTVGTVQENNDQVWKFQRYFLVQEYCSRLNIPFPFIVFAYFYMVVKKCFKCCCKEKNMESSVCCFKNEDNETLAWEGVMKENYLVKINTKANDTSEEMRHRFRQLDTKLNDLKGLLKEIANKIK
The data set can be described thus: TRPM8 agonist FLIPR Fluo-8 calcium assay. The data set is classed as cell-based. The conditions noted are these: for EC50: CHO cells, Fluo-8, n=4 replicates. As for the experimental part: The in vitro effects of test compounds were evaluated on cloned hTRPM8 channel (encoded by the human TRPM8 gene, expressed in CHO cells) using a Fluo-8 calcium kit and a Fluorescence Imaging Plate Reader (FLIPR^TETRA™) instrument.
Test compounds and positive control solutions were prepared by diluting stock solutions in a HEPES-buffered physiological saline (HBPS) solution. The test compound and control formulations were loaded in polypropylene or glass-lined 384-well plates, and placed into the FLIPR instrument (Molecular Devices Corporation, Union City, Calif., USA). The test compounds were evaluated at 4 or 8 concentrations with n=4 replicates per determination. […] The test cells were Chinese Hamster Ovary (CHO) cells stably transfected with human TRPM8 cDNAs.
For the FLIPR^TETRA™ assay, cells were plated in 384-well black wall, flat clear-bottom microtiter plates (Type: BD Biocoat Poly-D-Lysine Multiwell Cell Culture Plate) at approximately 30,000 cells per well. Cells were incubated at 37° C. overnight to reach a near confluent monolayer appropriate for use in a fluorescence assay. The test procedure was to remove the growth media and to add 40 μL of HBPS containing Fluo-8 for 30 min at 37° C. 10 μL of test compound, vehicle, or control solutions in HBPS were added to each well and read for 4 min.
Concentration-response data were analyzed via the FLIPR Control software that is supplied with the FLIPR System (MDS-AT) and fitted to a Hill equation of the following form: […]
where: “Base” is the response at low concentrations of test compound; “Max” is the maximum response at high concentrations; “xhalf” is the EC50, the concentration of test compound producing half-maximal activation; and “rate” is the Hill coefficient. Nonlinear least squares fits were made assuming a simple one-to-one binding model.

The subject of data set [4] is oral cavity and pharyngeal surfaces. Put plainly: Sensory activity of ODT-A on volunteers. The data set is classed as in vivo, human. The settings on record: 6 to 8 trials per compound. The procedure: ODT-A was prepared by dissolving the DAPA compound in absolute ethanol, adding a 80% mannitol-20% maltitol mixture of equal weight and then adding an equal volume of distilled water. The mixture was the stirred with a glass rod, and dispensed onto a piece of wax or parchment paper with a disposable plastic pipette. The viscous liquid drop formed was then dried under a heat source for at least 4 hr. The nominal dose of the API in ODT-A ranged from 1 to 3 mg/tablet. The dried tablets weighed on average 150 mg each and when on the dorsal surface of the tongue, rapidly dissolved completely in saliva and coated the oropharyngeal surface. These tablets were suitable for initial pilot studies, but were not uniform in size, were friable, especially in conditions of high ambient humidity, and were not readily amenable to further analytical evaluation.
Sensory Qualities of ODT on the Oral Cavity and Pharyngeal Surfaces The DAPA ODT of Study 2 were evaluated for sensory properties on volunteers. The ODT-A results [see table] are from 6 to 8 trials per compound in several experienced individuals familiar with sensory properties of “cooling agents”. The results of ODT-A will be discussed together with ODT-B and ODT-C.

For data set [5], the system named is oropharynx. The data set can be described thus: Chili-pepper sauce irritation test. The format is in vivo, human. The arrangement: key: If there was no suppression of the irritant/tickling sensations of the sauce, the value was “0”; if there was some suppression, the value was “+”; if there was complete suppression, then the value was “++.”. The settings on record: ODT, sauce applied 30 min later; 6 to 8 trials per compound. An excerpt:
The “pain” component of inflammation includes irritation, itch, and discomfort and suppression of these endpoints is termed “anti-nociceptive”. To determine if a compound has anti-nociceptive activity, the Inventor has devised a modified capsaicin challenge method to evoke discomfort in the oropharyngx: the chili-pepper sauce irritation test. Chili-pepper sauce placed onto the posterior dorsal surface of the tongue evokes a tickling/irritant sensations in the oropharynx. The sensations associated with the chili pepper sauce are located in the back of the mouth and are clearly recognized and associated with irritation and a desire to clear the throat. In the chili-pepper sauce irritation test, the test compound is delivered using an ODT, as in Study 3, and 30 min later 0.2 to 0.25 mL of the sauce was applied onto the posterior dorsal surface of the tongue (with a syringe or a plastic stick). The chili pepper sauce used here is called Yank Sing® Chili Pepper Sauce (YS Gourmet Productions, Inc., PO Box 26189, San Francisco, Calif. 94126) and is a well-known condiment for use with dim sum (Chinese tea lunch). If there was no suppression of the irritant/tickling sensations of the sauce, the value was “0”; if there was some suppression, the value was “+”; and if there was complete suppression, then the value was “++.” For compounds that gave a ++ score, the irritative signals of the chili-pepper sauce are completely absent, yet the salty taste from the soy sauce of the condiment can still be readily tasted. A “++” result indicated suppression of the irritant effects of chili-pepper sauce. Numerical results are from 6 to 8 trials per compound.

For data set [6], the target named is T2, ASIC3 (acid-sensing) (Homo sapiens, UniProt Q9UHC3).
T2 construct: expressed in transfected cells
T2 sequence (Q9UHC3 1-531): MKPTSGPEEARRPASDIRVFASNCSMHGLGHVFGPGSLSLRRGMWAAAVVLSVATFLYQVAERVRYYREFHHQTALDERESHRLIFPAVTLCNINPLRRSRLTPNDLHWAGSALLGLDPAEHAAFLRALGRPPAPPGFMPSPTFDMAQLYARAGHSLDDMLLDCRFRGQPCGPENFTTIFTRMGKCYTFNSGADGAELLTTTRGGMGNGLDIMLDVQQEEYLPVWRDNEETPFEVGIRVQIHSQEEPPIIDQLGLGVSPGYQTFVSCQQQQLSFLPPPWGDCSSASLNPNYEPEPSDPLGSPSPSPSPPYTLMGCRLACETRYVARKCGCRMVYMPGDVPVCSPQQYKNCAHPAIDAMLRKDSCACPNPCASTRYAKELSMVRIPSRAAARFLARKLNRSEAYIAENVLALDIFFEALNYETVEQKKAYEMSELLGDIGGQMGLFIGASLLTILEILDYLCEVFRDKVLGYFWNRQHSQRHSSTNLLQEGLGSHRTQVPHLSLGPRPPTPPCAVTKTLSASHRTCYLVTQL
Put plainly: Patch-clamp in transfected cells, ASIC3. The data set is classed as cell-based. The conditions noted are these: DAPA-2-5 at 5 μM; positive control amiloride. Background: The patch-clamp technique gives a direct electrical read-out from membranes.

Data set [7] deals with oropharynx. Put plainly: Sensory effects and cold discomfort of compounds given orally in ODT (general evaluation). The conditions noted are these: menthol at a dose of 2 mg in an ODT; icilin dose not given. The data set is classed as in vivo, human. As for the experimental part:
The correlation between a chemical's potency at the TRPM8 receptor (measured by the EC50 μM) and potency to evoke sensory events in the oropharynx is complex.
When a test compound is applied to non-keratinizng bodily surfaces (e.g., oropharyngeal surface), it is possible to characterize the resulting sensations.
The sensations are akin to rapid drinking of cold water mixed and equilibrated with ice chips. The intense cold is further accentuated if the drink is acidified, for example, with lemonade. The sensations of dull and intense cold on the surface of the oropharynx can be described as painful, uncomfortable, and aversive. The term “icy cold” is used to describe these adverse intense cold sensations.
Together, these three types of sensations—“icy cold”, coldness in the chest, and systemic coldness—is termed “cold discomfort”. […] The ideal agent must have a circumscribed site of action, and the intensity of the sensation should not cause “icy cold”, coldness in the chest, or systemic chills.

Turning to `CCCCCP(=O)(C(C)C)C(C)C` [DAPA-1-5, 1-Di(isopropyl)-phosphinoyl-pentane], in data set [1], the “ODT-C test results (sensation and taste in words)” value (from here on “ODT-C test results”) was “brief but intense cool”; the “duration of cooling effect” value was < 5 min; the ASHRAE equivalent was −2.7. Also, the “Cold Discomfort” value in data set [2] is 0. The “Relative Potency to L-menthol” value in data set [3] is reported as 0.7. In addition, in data set [4], the “Duration” value amounted to 5 min, the “Onset” value is reported as 0.1 min and the “Sensory Quality” value is reported as “cool”. Besides, the Chili test result in data set [5] is “++”.
With `CCCCCCCCP(=O)(C(C)C)C(C)C` [DAPA-1-8, 1-Di(isopropyl)-phosphinoyl-octane], in data set [1], the “ODT-C test results” value is on record as “strong unpleasant taste”; the “duration of cooling effect” value is ~15 min; the ASHRAE equivalent is recorded as −3. Besides, in data set [2], the “Cold Discomfort” value is recorded as “+”. For the same compound, the “Relative Potency to L-menthol” value in data set [3] is reported as 5.4. Moreover, in data set [4], the “Duration” value was 27 min, the “Onset” value was found to be 1.2 min and the “Sensory Quality” value was “cool”. Besides, the Chili test entry in data set [5] is listed as “+”.
Regarding `CCCCP(=O)(C(C)CC)C(C)CC` (centres unmarked) [DAPA-2-4, 1-Di(sec-butyl) phosphinoyl-butane], in data set [1], the “ODT-C test results” value is “pleasant cool, but transient effect”; the “duration of cooling effect” value is < 5 min; the ASHRAE equivalent was −2.5. For the same compound, the “Cold Discomfort” value in data set [2] came to 0. The “Relative Potency to L-menthol” value in data set [3] came to 0.3. Moreover, in data set [4], the “Duration” value is 3 min, the “Onset” value was 1 min and the “Sensory Quality” value is “brief cool”. The Chili test in data set [5] is 0.
A word on the EC50: it is the concentration that produces a half-maximal response. For the compound `CCCCCP(=O)(CC(C)C)CC(C)C` [DAPA-3-1, 1-di(iso-butyl) phosphinoyl-pentane], the “Cold Discomfort” value in data set [2] worked out at 0. In data set [3], the “Relative Potency to L-menthol” value is listed as 0.2 and the EC50 worked out at 24 µM. Also, in data set [4], the “Duration” value is given as 0 min, the “Onset (min)” value is listed as “not active” and the “Sensory Quality” value was “not active”. In data set [5], this compound yielded a Chili test of 0.
For `CCC(C)P(=O)(CCC(C)C)C(C)CC` (centres unmarked) [DAPA-3-2, 1-Di(sec-butyl) phosphinoyl-3-methyl-butane], the “Cold Discomfort” value in data set [2] is on record as 0. In data set [3], the “Relative Potency to L-menthol” value is given as 0.9 and the concentration giving a half-maximal response (EC50) is 4.2 µM. Moreover, in data set [4], the “Duration” value came to 2 min, the “Onset” value is recorded as 1 min and the “Sensory Quality” value is listed as “brief cool”. Besides, in data set [5], the Chili test is 0.
As for `N=C(N)NC(=O)c1nc(Cl)c(N)nc1N` [amiloride, reference compound], the “agonist or antagonist activity, ASIC3” value in data set [6] is on record as “active”.
Take `O=C1NC(c2cccc([N+](=O)[O-])c2)=CCN1c1ccccc1O` [icilin, reference compound]: in data set [7], the “sensory effects / side-effects in an ODT” value is “did not produce cooling in the chest or the desired sensations on the throat”. For the same compound, the “rank in TRPM8 potency among the 21 compounds tested” value in data set [3] amounted to 4.
